Measured values reported in PubChem BioAssay AID588640 (The Scripps Research Institute Molecular Screening Center, 2011).
The source made the active and inactive calls.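 The calls were made as follows: active = p38 protein level shifted at least 30% from the DMSO control, either lower or higher; inactive = the rest.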

System: HCT116 p38 protein level, western blot, 24 h
Test: p38 MAPK abundance shift in treated cells – cell-based, HCT116 colorectal carcinoma, chemiluminescent western blot, counter-screen for KLF5 inhibitor project, late-stage follow-up (AID 588640)
Details: at 10 µM; for inhibition: stronger effect = higher value; for fold change: measured here: p38 band fold change vs DMSO

CN(C(=O)CNC(=O)/C=C/c1cccc(Cl)c1)C1CCS(=O)(=O)CC1
inhibition: 35.2% | fold change: 0.647

CN(C(=O)CNC(=O)/C=C/c1cccc(Cl)c1)C1CCS(=O)(=O)C1 (stereo unspecified)
inhibition: -15.7% (inactive) | fold change: 1.16

CN(C(=O)COC(=O)/C=C/c1cccc([N+](=O)[O-])c1)C1CCS(=O)(=O)C1 (stereo unspecified)
inhibition: 36.3% | fold change: 0.658
